Results reported in US11370770B2, “3-arylindazoles as selective MEK4 inhibitors” (priority 2019, dated 2022).
pIC50: −log10 of the molar value.

What was measured:
MEK3 = MEK3 (Homo sapiens (Human), UniProt P46734); assay: MEK family profiling ADP-Glo, MEK3; assay type: biochemical; conditions: p38α substrate; 0.6 μM ATP; read-out: IC50 MEK isoform 3
MEK2 = MEK2 (Homo sapiens (Human), UniProt P36507); assay: MEK family profiling ADP-Glo, MEK2; assay type: biochemical; conditions: Erk2 substrate; 0.6 μM ATP; read-out: IC50 MEK isoform 2
MEK1 = MEK1 (Homo sapiens (Human), UniProt Q02750); assay: MEK family profiling ADP-Glo, MEK1; assay type: biochemical; conditions: Erk2 substrate; 0.6 μM ATP; read-out: IC50 MEK isoform 1
MEK6 = MEK6 (Homo sapiens (Human), UniProt P52564); assay: MEK family profiling ADP-Glo, MEK6; assay type: biochemical; conditions: p38α substrate; 0.6 μM ATP; read-out: IC50 MEK isoform 6
MEK5 = MEK5 (Homo sapiens (Human), UniProt Q13163); assay: MEK family profiling ADP-Glo, MEK5; assay type: biochemical; conditions: Erk5 substrate; 0.6 μM ATP; read-out: IC50 MEK isoform 5
human MEK4 = human MEK4 (Homo sapiens (Human), UniProt P45985); assay: MEK4 ADP-Glo kinase activity assay (p38α substrate); assay type: biochemical; conditions: for IC50: p38α substrate, value with 95% confidence interval in brackets, read-out: MEK4-p38, IC50, μM [95% Cl]
PC3M cells = assay: Scratch wound assay; assay type: cell-based

Sequence of human MEK4 (P45985 whole entry): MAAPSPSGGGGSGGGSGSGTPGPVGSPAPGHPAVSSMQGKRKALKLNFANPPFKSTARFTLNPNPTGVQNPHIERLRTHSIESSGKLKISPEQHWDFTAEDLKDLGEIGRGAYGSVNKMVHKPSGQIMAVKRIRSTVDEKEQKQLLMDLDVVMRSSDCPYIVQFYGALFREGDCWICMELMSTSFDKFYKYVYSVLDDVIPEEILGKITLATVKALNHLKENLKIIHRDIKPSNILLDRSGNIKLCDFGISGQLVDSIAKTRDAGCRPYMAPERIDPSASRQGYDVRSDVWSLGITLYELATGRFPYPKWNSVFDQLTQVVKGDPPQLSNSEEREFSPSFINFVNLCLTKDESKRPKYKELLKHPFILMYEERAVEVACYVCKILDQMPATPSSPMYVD
Sequence of MEK6 (P52564 whole entry, canonical isoform): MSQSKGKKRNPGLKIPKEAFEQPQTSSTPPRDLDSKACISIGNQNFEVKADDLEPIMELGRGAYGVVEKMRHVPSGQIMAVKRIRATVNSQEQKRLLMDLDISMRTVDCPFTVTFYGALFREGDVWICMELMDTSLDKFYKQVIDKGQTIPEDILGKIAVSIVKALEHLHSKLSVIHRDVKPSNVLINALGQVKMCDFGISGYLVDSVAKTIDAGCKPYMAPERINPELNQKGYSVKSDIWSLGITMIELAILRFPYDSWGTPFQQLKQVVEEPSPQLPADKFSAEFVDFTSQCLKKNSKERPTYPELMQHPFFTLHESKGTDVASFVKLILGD
Sequence of MEK5 (Q13163 whole entry, canonical isoform): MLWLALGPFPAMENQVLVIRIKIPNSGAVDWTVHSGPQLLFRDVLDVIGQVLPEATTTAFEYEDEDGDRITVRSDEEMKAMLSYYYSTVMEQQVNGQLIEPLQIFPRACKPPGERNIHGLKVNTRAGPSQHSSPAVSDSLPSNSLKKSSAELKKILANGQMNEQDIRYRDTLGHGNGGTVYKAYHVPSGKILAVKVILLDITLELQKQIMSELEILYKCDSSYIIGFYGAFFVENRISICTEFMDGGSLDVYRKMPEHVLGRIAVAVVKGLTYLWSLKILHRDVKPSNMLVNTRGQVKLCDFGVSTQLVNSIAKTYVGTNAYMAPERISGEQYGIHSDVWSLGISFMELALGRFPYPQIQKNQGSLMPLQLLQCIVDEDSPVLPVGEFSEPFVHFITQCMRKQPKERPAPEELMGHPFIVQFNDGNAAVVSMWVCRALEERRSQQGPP
Sequence of MEK2 (P36507 whole entry, canonical isoform): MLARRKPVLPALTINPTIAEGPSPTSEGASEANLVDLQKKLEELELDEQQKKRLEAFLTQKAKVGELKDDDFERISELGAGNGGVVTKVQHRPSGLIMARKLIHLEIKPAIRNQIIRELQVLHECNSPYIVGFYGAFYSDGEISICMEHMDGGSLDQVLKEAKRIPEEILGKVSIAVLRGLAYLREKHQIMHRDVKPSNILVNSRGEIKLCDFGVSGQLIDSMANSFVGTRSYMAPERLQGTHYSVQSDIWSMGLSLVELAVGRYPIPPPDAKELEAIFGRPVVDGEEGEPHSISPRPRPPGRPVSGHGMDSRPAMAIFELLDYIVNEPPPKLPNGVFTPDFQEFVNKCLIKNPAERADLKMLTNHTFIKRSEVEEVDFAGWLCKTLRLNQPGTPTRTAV
Sequence of MEK1 (Q02750 whole entry, canonical isoform): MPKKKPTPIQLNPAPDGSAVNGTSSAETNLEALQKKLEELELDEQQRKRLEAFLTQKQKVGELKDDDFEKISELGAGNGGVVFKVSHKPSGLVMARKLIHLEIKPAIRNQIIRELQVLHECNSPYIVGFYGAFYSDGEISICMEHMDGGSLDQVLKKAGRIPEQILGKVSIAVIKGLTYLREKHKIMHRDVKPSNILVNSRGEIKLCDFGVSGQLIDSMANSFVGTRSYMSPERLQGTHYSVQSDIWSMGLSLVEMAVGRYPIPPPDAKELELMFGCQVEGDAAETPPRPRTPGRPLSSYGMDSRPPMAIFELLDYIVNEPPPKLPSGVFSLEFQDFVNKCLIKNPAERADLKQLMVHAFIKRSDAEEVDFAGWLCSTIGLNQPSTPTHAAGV
Sequence of MEK3 (P46734 whole entry, canonical isoform): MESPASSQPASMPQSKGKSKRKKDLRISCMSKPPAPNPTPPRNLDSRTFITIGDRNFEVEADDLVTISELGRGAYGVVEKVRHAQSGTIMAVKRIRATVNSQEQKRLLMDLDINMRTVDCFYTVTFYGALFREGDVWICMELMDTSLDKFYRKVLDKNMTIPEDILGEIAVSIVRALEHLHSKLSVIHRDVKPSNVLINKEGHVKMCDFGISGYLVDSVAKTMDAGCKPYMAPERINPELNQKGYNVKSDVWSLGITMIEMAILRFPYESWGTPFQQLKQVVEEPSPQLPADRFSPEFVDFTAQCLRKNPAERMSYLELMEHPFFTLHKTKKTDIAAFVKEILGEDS

Row | Structure (SMILES) | pIC50 (MEK3) | pIC50 (MEK2) | pIC50 (MEK1) | pIC50 (MEK6) | pIC50 (MEK5) | other results
1 | Cc1cccc2[nH]nc(-c3ccc(O)cc3)c12 [Compound 6b] | < 4.57 | 4.82 | 4.96 | 4.68 | < 4.57 | –
2 | Clc1cccc2[nH]nc(-c3cccnc3)c12 [Compound 6e, 4-chloro-3-(pyridin-3-yl)-2H-indazole] | – | – | – | – | – | IC50 (human MEK4): > 22 µM
3 | Fc1ccc2c(-c3ccc4c(c3)OCO4)n[nH]c2c1 [Compound 6ee, 3-(2H-1,3-benzodioxol-5-yl)-6-fluoro-2H-indazole] | 4.68 | 5.03 | 5.18 | 5.24 | < 4.57 | efficacy in wound scratch assay (PC3M cells; 10 μM): modest efficacy; efficacy in wound scratch assay (PC3M cells; 25 μM): performs better; Percent Difference, DMSO vs. 10 uM inhibitor (PC3M cells; PC3M cells, 10 μM, wound gap 0 vs 20 hrs): 14.93%; Percent Difference, DMSO vs. 25 uM inhibitor (PC3M cells; PC3M cells, 25 μM, wound gap 0 vs 20 hrs): 32.15%
4 | CC(C)(O)c1cccc(-c2n[nH]c3cccc(Cl)c23)c1 [Compound 6g, 2-[3-(4-chloro-2H-indazol-3-yl)phenyl]propan-2-ol] | – | – | – | – | – | IC50 (human MEK4): > 22 µM
5 | Oc1ccc(-c2n[nH]c3ccc(C(F)(F)F)cc23)cc1 [Compound 6j, 4-[5-(trifluoromethyl)-2H-indazol-3-yl]phenol] | – | 5.28 | 5.34 | 5.80 | < 4.57 | –
6 | CC(C)(C)OC(=O)n1nc(-c2ccc(O)cc2)c2cc(C(F)(F)F)ccc21 [Compound 6k, tert-butyl 3-(4-hydroxyphenyl)-5-(trifluoromethyl)-1H-indazole-1-carboxylate] | – | – | – | – | – | IC50 (human MEK4): > 20 µM
7 | O=C(O)c1ccc(-c2n[nH]c3ccc(C(F)(F)F)cc23)cc1 [Compound 6n, 4-[5-(trifluoromethyl)-2H-indazol-3-yl]benzoic Acid] | 5.54 | < 4.57 | 5.00 | 5.22 | < 4.57 | –
8 | Cc1ccc2[nH]nc(-c3ccc(F)c(CO)c3)c2c1 [Compound 6o] | 5.22 | 5.27 | 5.40 | 5.47 | < 4.57 | –
9 | Cc1ccc2[nH]nc(-c3ccc4c(c3)OCO4)c2c1 [Compound 6p, 3-(2H-1,3-benzodioxol-5-yl)-5-methyl-2H-indazole] | 5.07 | 5.04 | 5.18 | 5.49 | 4.80 | –
10 | Cc1ccc2[nH]nc(-c3ccc(O)cc3)c2c1 [Compound 6q, 4-(5-methyl-2H-indazol-3-yl)phenol] | – | 5.14 | 5.11 | 5.66 | 4.60 | –
11 | Cc1ccc2[nH]nc(-c3ccc(C(N)=O)cc3)c2c1 [Compound 6r, 4-(5-methyl-2H-indazol-3-yl)benzamide] | 5.39 | 5.21 | 5.41 | 5.68 | 4.72 | –
12 | Cc1ccc2[nH]nc(-c3ccc(C(=O)O)cc3)c2c1 [Compound 6s, 4-(5-methyl-2H-indazol-3-yl)benzoic Acid] | 4.92 | < 4.57 | 4.77 | 5.06 | < 4.57 | –
13 | COC(=O)c1ccc(-c2n[nH]c3cc(C(F)(F)F)ccc23)cc1 [Compound 6y, methyl 4-[6-(trifluoromethyl)-2H-indazol-3-yl]benzoate] | – | – | – | – | – | MEK4 inhibition (human MEK4; SAR discussion of Table 1): completely inactive; IC50 (human MEK4): > 20 µM
14 | O=C(O)c1ccc(-c2n[nH]c3cc(C(F)(F)F)ccc23)cc1 [Compound 6z, 4-[6-(trifluoromethyl)-2H-indazol-3-yl]benzoic Acid] | < 4.57 | < 4.57 | 4.77 | 5.06 | 6.46 | –
15 | O=c1c(-c2ccc(O)cc2)coc2cc(O)cc(O)c12 [Geni, genistein, reference compound] | – | – | – | – | – | Percent Difference, DMSO vs. Geni (PC3M cells; PC3M cells, genistein 10 μM, wound gap 0 vs 20 hrs): 33.45%
